Reference: patent publication US12065445B2, “CDK2 inhibitors and methods of using the same” (Cedilla Therapeutics, Inc., priority 2021, dated 2024)

system: Kuramochi cells; experiment: BrdU Cell Proliferation Assay; type: cell-based; details: read-out: BrdU - KURAMOCHI.1: IC50
In short: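 Signal is 450 nm absorbance from a peroxidase anti-BrdU ELISA after a 1-hour BrdU label, background-subtracted and normalized to DMSO-treated wells. Kuramochi cells (2,000 per well) had been exposed to compound for 4 days. Dosing used a 10-point dose response in 3-fold steps.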

Structure (SMILES)	IC50 [µM]
C[C@@H](OCC1CCCCC1)[C@H](NC(=O)[C@@H]1CN(C(=O)c2ccns2)CC12CN(C(=O)[C@H]1CC1(C)C)C2)C(=O)N1CCCCC1 [I-217]	≤ 0.5
C[C@@H](OCC1CCCCC1)[C@H](NC(=O)[C@@H]1CN(C(=O)c2cnn(Cc3ccccc3)c2)CC12CN(C(=O)[C@H]1CC1(C)C)C2)C(=O)N1CCC[C@@H](N)C1 [I-218]	5 to 10
C[C@@H](OCC1CCCCC1)[C@H](NC(=O)[C@@H]1CN(C(=O)c2cnn(Cc3ccccc3)c2)CC12CN(C(=O)[C@H]1CC1(C)C)C2)C(=O)N1CCC(CN)CC1 [I-219]	0.5 to 5
C[C@@H](OCC1CCCCC1)[C@H](NC(=O)[C@@H]1CN(C(=O)c2cnn(Cc3ccccc3)c2)CC12CN(C(=O)[C@H]1CC1(C)C)C2)C(=O)N1CCC[C@H]1CN [I-220]	> 10
CC1(C)C[C@@H]1C(=O)N1CC2(CN(C(=O)c3cnn(Cc4ccccc4)c3)C[C@H]2C(=O)NCC2CCCCO2)C1 (some centres unmarked) [I-221]	> 10
CC1(C)C[C@@H]1C(=O)N1CC2(CN(C(=O)c3cnn(Cc4ccccc4)c3)C[C@H]2C(=O)NC2CCNC(=O)C2)C1 (some centres unmarked) [I-223]	> 10
CNC(=O)[C@@H](NC(=O)[C@@H]1CN(C(=O)c2scnc2C2CCCC2)CC12CN(C(=O)[C@H]1CC1(C)C)C2)[C@@H](C)OCC1CCCCC1 [I-224B]	> 10
CNC(=O)[C@H](CSCc1ccccc1)NC(=O)[C@@H]1CN(C(=O)c2cnn(Cc3ccccc3)c2)CC12CN(C(=O)[C@H]1CC1(C)C)C2 [I-225]	> 10
CNC(=O)[C@H](CS(=O)(=O)Cc1ccccc1)NC(=O)[C@@H]1CN(C(=O)c2cnn(Cc3ccccc3)c2)CC12CN(C(=O)[C@H]1CC1(C)C)C2 [I-226]	> 10
CNC(=O)[C@@H](NC(=O)[C@H]1CN(C(=O)c2sc(C(C)C)nc2C)CC12CN(C(=O)[C@H]1CC1(C)C)C2)[C@@H](C)OCC1CCCCC1 [I-227B]	> 10
C[C@@H](OCC1CCC(F)(F)CC1)[C@H](NC(=O)[C@H]1CN(C(=O)c2cn[nH]c2)CC12CN(C(=O)[C@H]1CC1(C)C)C2)C(=O)N1CCC(F)(F)CC1 [I-228B]	> 10
CNC(=O)[C@@H](NC(=O)[C@H]1CN(C(=O)c2cnc(C(C)(C)C)s2)CC12CN(C(=O)[C@H]1CC1(C)C)C2)[C@@H](C)OCC1CCCCC1 [I-229B]	> 10
CC1(C)C[C@@H]1C(=O)N1CC2(CN(C(=O)c3cnn(Cc4ccccc4)c3)C[C@H]2C(=O)NCc2nc3ccccc3o2)C1 [I-230]	> 10
CNC(=O)[C@@H](NC(=O)[C@H]1CN(C(=O)c2scnc2C(C)(C)C)CC12CN(C(=O)[C@H]1CC1(C)C)C2)[C@@H](C)OCC1CCCCC1 [I-231B]	> 10
CNC(=O)[C@@H](NC(=O)[C@H]1CN(C(=O)c2sc(Cl)nc2Cl)CC12CN(C(=O)[C@H]1CC1(C)C)C2)[C@@H](C)OCC1CCCCC1 [I-232B]	> 10
CC(C)O[C@H]1C[C@H](NC(=O)[C@@H]2CN(C(=O)c3cnn(Cc4ccccc4)c3)CC23CN(C(=O)[C@H]2CC2(C)C)C3)C1 [I-233]	> 10
CC1(C)C[C@@H]1C(=O)N1CC2(CN(C(=O)c3cnn(Cc4ccccc4)c3)C[C@H]2C(=O)N2CC[C@@H](OCC3CCCCC3)C2)C1 [I-235]	> 10
CC1(C)C[C@@H]1C(=O)N1CC2(CN(C(=O)c3cnn(Cc4ccccc4)c3)C[C@H]2C(=O)N2CCC[C@H](OCC3CCCCC3)C2)C1 [I-236]	> 10
CC1(C)C[C@@H]1C(=O)N1CC2(CN(C(=O)c3cnn(Cc4ccccc4)c3)C[C@H]2C(=O)N2CCN(CC3CCCCC3)CC2)C1 [I-237]	> 10

Structure (SMILES)	IC50 [µM]
C[C@@H](OCC1CCCCC1)[C@H](NC(=O)[C@@H]1CN(C(=O)c2cnn(Cc3ccccc3)c2)CC12CN(C(=O)[C@H]1CC1(C)C)C2)C(=O)N1CCC[C@@H]1CN [I-238]	> 10
C[C@@H](OCC1CCCCC1)[C@H](NC(=O)[C@@H]1CN(C(=O)c2cnn(Cc3ccccc3)c2)CC12CN(C(=O)[C@H]1CC1(C)C)C2)C(=O)N1CC(CN)C1 [I-239]	> 10
C[C@@H](OCC1CCCCC1)[C@H](NC(=O)[C@@H]1CN(C(=O)c2cnn(Cc3ccccc3)c2)CC12CN(C(=O)[C@H]1CC1(C)C)C2)C(=O)N1CC2(CNC2)C1 [I-240]	> 10
Cc1n[nH]c(C(=O)N2C[C@@H](C(=O)N[C@H](C(=O)N3CCCCC3)[C@@H](C)OCC3CCCCC3)C3(C2)CN(C(=O)[C@H]2CC2(C)C)C3)n1 [I-241]	> 10
C[C@@H](OCC1CCCCC1)[C@H](NC(=O)C1CN(C(=O)C2CCC(=O)N(C)C2)CC12CN(C(=O)[C@H]1CC1(C)C)C2)C(=O)N1CCCCC1 (some centres unmarked) [I-242]	> 10
CC1(C)C[C@@H]1C(=O)N1CC2(CN(C(=O)c3cnn(Cc4ccccc4)c3)C[C@H]2C(=O)N[C@H]2CCN(C3CC3)C2=O)C1 [I-243]	> 10
CNC(=O)[C@@H](NC(=O)[C@@H]1CN(C(=O)c2cnn(Cc3ccccc3)c2)CC12CN(C(=O)[C@H]1CC1(C)C)C2)[C@@H](C)OCc1ccncc1 [I-244]	> 10
CC1(C)C[C@@H]1C(=O)N1CC2(CN(C(=O)c3cnn(Cc4ccccc4)c3)CC2C(=O)NC2CNCCOC2)C1 (some centres unmarked) [I-245]	> 10
CNC(=O)[C@@H](NC(=O)[C@@H]1CN(C(=O)c2cnn(Cc3ccccc3)c2)CC12CN(C(=O)[C@H]1CC1(C)C)C2)[C@@H](C)OCc1cccnc1 [I-247]	> 10
CO[C@@H]1CC[C@H](NC(=O)[C@@H]2CN(C(=O)c3cnn(Cc4ccccc4)c3)CC23CN(C(=O)[C@H]2CC2(C)C)C3)C1 [I-248]	> 10
COCC1(NC(=O)[C@H]2CN(C(=O)c3cnn(Cc4ccccc4)c3)CC23CN(C(=O)[C@H]2CC2(C)C)C3)CC1 [I-250]	> 10
CNC(=O)[C@@H](NC(=O)[C@@H]1CN(C(=O)c2cnn(Cc3ccccc3)c2)CC12CN(C(=O)[C@H]1CC1(C)C)C2)[C@@H](C)OCc1ccccc1O [I-251]	> 10
CC1(C)C[C@@H]1C(=O)N1CC2(CN(C(=O)c3cnn(Cc4ccccc4)c3)C[C@H]2C(=O)N2CCC[C@@H](OCC3CCCCC3)C2)C1 [I-254]	> 10
CC1(C)C[C@@H]1C(=O)N1CC2(CN(C(=O)c3cnn(Cc4ccccc4)c3)C[C@H]2C(=O)N2CCO[C@H](Cc3ccccc3)C2)C1 [I-255]	> 10
CC1(C)C[C@@H]1C(=O)N1CC2(CN(C(=O)c3cnn(Cc4ccccc4)c3)C[C@H]2C(=O)N2CC[C@H](OCC3CCCCC3)C2)C1 [I-256]	5 to 10
CO[C@H](C)[C@H](NC(=O)[C@@H]1CN(C(=O)c2cnn(C)c2)CC12CN(C(=O)[C@H]1CC1(C)C)C2)C(=O)N1CCCCC1 [I-303]	> 10
C[C@@H](O)[C@H](NC(=O)[C@@H]1CN(C(=O)c2cnn(C)c2)CC12CN(C(=O)[C@H]1CC1(C)C)C2)C(=O)N1CCCCC1 [I-305]	0.5 to 5
COC[C@H]1CCCN(C(=O)[C@@H](NC(=O)[C@@H]2CN(C(=O)c3cncs3)CC23CN(S(=O)(=O)C(C)(C)C)C3)[C@@H](C)OCC2CCCCC2)C1 [I-447, (S)-2-(tert-butylsulfonyl)-N-((2S,3R)-3-(cyclohexylmethoxy)-1-((S)-3-(methoxymethyl)piperidin-1-yl)-1-oxobutan-2-yl)-6-(thiazole-5-carbonyl)-2,6-diazaspiro[3.4]octane-8-carboxamide]	> 10

system: Kuramochi cells labeled with mApple-H2B; experiment: IncuCyte Cell Proliferation Assay; type: cell-based; details: 72 h
Method: IncuCyte® assay was used to measure the effect of disclosed compounds on cell proliferation. Fluorescent microscopy images of cells were taken immediately after compound treatment and 72 hours later. Image analysis software was used to obtain cell counts as a function of compound concentration. Kuramochi cells labeled with mApple-H2B were seeded on 384-well assay-ready plates. Plates were placed in an IncuCyte® (Sartorius) and scanned at 0 and 72 hours. IncuCyte® software was used to count the number of fluorescent nuclei in each well. The fold change in cell count from 0 to 72 hours in wells treated with increasing compounds concentrations (10 pts, ½ log dilution, 20 μM top concentration) was normalized to DMSO control wells. The normalized cell counts were fit with dose response curves and a […] was calculated.

Structure (SMILES)	IC50 [µM]
C[C@@H](OCC1CCCCC1)C(NC(=O)[C@@H]1CN(C(=O)c2cncs2)CC12CN(C(=O)[C@H]1CC1(C)C)C2)c1nnco1 (stereo in doubt) [I-415, (S)—N-((1S,2R)-2-(cyclohexylmethoxy)-1-(1,3,4-oxadiazol-2-yl)propyl)-2-((S)-2,2-dimethylcyclopropane-1-carbonyl)-6-(thiazole-5-carbonyl)-2,6-diazaspiro[3.4]octane-8-carboxamide]	0.5 to 5
CNC(=O)[C@@H](NC(=O)[C@H]1CN(C(=O)c2cnn(Cc3ccccc3)c2)CC12CN(C(=O)OC(C)(C)C)C2)[C@@H](C)OCc1ccccc1 [I-3B]	> 20
[2H]C([2H])([2H])NC(=O)C(NC(=O)[C@@H]1CN(C(=O)c2cncs2)CC12CN(C(=O)[C@H]1CC1(C)C)C2)c1cccc(N2CCOCC2)n1 (some centres unmarked) [I-18]	> 20
Cc1ccc(CNC(=O)[C@@H]2CN(C(=O)c3cnn(Cc4ccncc4F)c3)CC23CN(C(=O)[C@H]2CC2(C)C)C3)nn1 [I-35]	> 20
C[C@@H](OCC1(C(F)(F)F)CC1)[C@H](NC(=O)[C@@H]1CN(C(=O)c2cncs2)CC12CN(C(=O)[C@H]1CC1(C)C)C2)C(=O)N1CCCCC1 [I-285]	> 20
C[C@@H](OCC1(C(F)(F)F)CC1)[C@H](NC(=O)[C@H]1CN(C(=O)c2cncs2)CC12CN(C(=O)[C@H]1CC1(C)C)C2)C(=O)N1CCC(F)(F)CC1 [I-291]	> 20
C[C@@H](OCC1(C(F)(F)F)CC1)[C@H](NC(=O)[C@H]1CN(C(=O)c2cncs2)CC12CN(C(=O)[C@H]1CC1(C)C)C2)C(=O)N1CCCCC1 [I-292]	> 20
C[C@@H](OCC1CCOCC1)[C@H](NC(=O)[C@@H]1CN(C(=O)c2cn[nH]c2)CC12CN(C(=O)[C@H]1CC1(C)C)C2)C(=O)N1CCC(F)(F)CC1 [I-297]	> 20
C[C@@H](OCC1CCCCC1)[C@H](NC(=O)[C@@H]1CN(C(=O)c2cnn(Cc3ccccc3)c2)CC12CN(C(=O)[C@H]1CC1(C)C)C2)C(=O)N1CCC(c2ccncc2)CC1 [I-300]	≤ 0.5
C[C@@H](OCC1CCC(F)(F)CC1)[C@H](NC(=O)[C@@H]1CN(C(=O)c2cn[nH]c2)CC12CN(C(=O)[C@H]1CC1(C)C)C2)C(=O)N1CCOCC1 [I-301, (S)—N-((2S,3R)-3-((4,4-difluorocyclohexyl)methoxy)-1-morpholino-1-oxobutan-2-yl)-2-((S)-2,2-dimethylcyclopropane-1-carbonyl)-6-(1H-pyrazole-4-carbonyl)-2,6-diazaspiro[3.4]octane-8-carboxamide]	> 20
